Among the test systems are HT29 colon; MALME-3M melanoma; NCI-H23 lung; OVCAR-4 ovarian; SF-539 CNS; SK-MEL-5 melanoma; SR leukemia; TK-10 renal; U251 CNS; HOP-62 NSCLC.
What all share (assay): inhibition of tumour cell growth, NCI panel, 48 h

Molecules are shown by their SMILES.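 Exposure lasted 48 hours, with cells grown in 96-well plates and compounds tested at five concentrations. GI50 is the concentration that inhibits growth by half. Definition used: TGI = concentration required for complete inhibition of growth.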

The results in this text go back to PubChem BioAssay (NCI).

In the case of `CN(C)c1ccc([O][Bi]([Cl])[Cl])cc1`, the GI50 is above 100 µM in the experiment on HT29 colon; above 100 µM with MALME-3M melanoma; above 100 µM in the experiment on NCI-H23 lung; above 100 µM in the experiment on OVCAR-4 ovarian; above 100 µM with SF-539 CNS; 29.6 µM in the experiment on SK-MEL-5 melanoma. In addition, the GI50 in the experiment with SR leukemia was 80.1 µM; with TK-10 renal, above 100 µM; in the experiment on U251 CNS, above 100 µM. Further, the TGI with HT29 colon, with MALME-3M melanoma, in the experiment on NCI-H23 lung, in the experiment with OVCAR-4 ovarian, with SF-539 CNS and in the experiment on SK-MEL-5 melanoma was above 100 µM each time. Moreover, the TGI with SR leukemia, in the experiment on TK-10 renal and in the experiment on U251 CNS was above 100 µM each time.
With `COc1c(OC)c(OC)c2c(c1OC)c(=O)c1ccccc1n2C`, the TGI in the experiment with HOP-62 NSCLC, in the experiment on HT29 colon, in the experiment on NCI-H23 lung, with OVCAR-4 ovarian, in the experiment with SF-539 CNS and in the experiment with SK-MEL-5 melanoma was above 100 µM throughout. In addition, the TGI in the experiment with SR leukemia, in the experiment on TK-10 renal and in the experiment with U251 CNS was above 100 µM in each case.
Regarding `N/C(=C\c1ccc(OCc2ccccc2)c(OCc2ccccc2)c1[N+](=O)[O-])C(=O)O`, the TGI with HOP-62 NSCLC, in the experiment with HT29 colon, in the experiment on MALME-3M melanoma, with NCI-H23 lung, with SF-539 CNS and in the experiment with SK-MEL-5 melanoma was above 100 µM in each case. In addition, the TGI in the experiment on SR leukemia, in the experiment with TK-10 renal and in the experiment with U251 CNS was above 100 µM each time.
On to `O=C(Nc1cc(Cl)cc(Cl)c1)c1ccc(NC2=C(Cl)C(=O)N(Cc3ccc(Cl)cc3Cl)C2=O)cc1`, for which the GI50 was 34.1 µM in the experiment on HOP-62 NSCLC; 49.3 µM in the experiment with HT29 colon; 3.71 µM in the experiment with NCI-H23 lung; 21.8 µM in the experiment on OVCAR-4 ovarian; 6.94 µM with SF-539 CNS; 1.16 µM with SK-MEL-5 melanoma. Also, the GI50 was 0.0622 µM with SR leukemia, 0.768 µM in the experiment with TK-10 renal and 16.8 µM with U251 CNS. Moreover, the TGI in the experiment on HOP-62 NSCLC was above 100 µM; in the experiment on HT29 colon it was above 100 µM; in the experiment on NCI-H23 lung, 19.2 µM; in the experiment with OVCAR-4 ovarian, above 100 µM; with SF-539 CNS it was 25.3 µM; with SK-MEL-5 melanoma it was 2.65 µM. Besides, the results for the TGI in the experiment on SR leukemia, in the experiment on TK-10 renal and with U251 CNS were 0.238 µM, 26 µM and 51.6 µM, respectively.
As for `N[C@@H]1CCCC[C@H]1N.O=C([O-])C(=O)[O-].[Pt+4]`, the GI50 is 46.2 µM with HOP-62 NSCLC; 0.175 µM in the experiment with HT29 colon; 3.22 µM with MALME-3M melanoma; 1.76 µM in the experiment on NCI-H23 lung; 4.09 µM with OVCAR-4 ovarian; 10 µM in the experiment on SF-539 CNS. Further, the results for the GI50 in the experiment with SK-MEL-5 melanoma, with TK-10 renal and in the experiment on U251 CNS were 1.14 µM, 21.2 µM and 1.83 µM, respectively. Also, the TGI in the experiment with HOP-62 NSCLC is above 100 µM; in the experiment with HT29 colon, above 8.25 µM; in the experiment with MALME-3M melanoma it was 26.6 µM; in the experiment on NCI-H23 lung, 15.2 µM; in the experiment on OVCAR-4 ovarian, 83.8 µM; in the experiment with SF-539 CNS it was above 83.8 µM. The TGI with SK-MEL-5 melanoma turned out to be 13.3 µM; in the experiment on TK-10 renal it was 74 µM; with U251 CNS it was 27.1 µM.
As to `CCC/C(=N/NC(=O)C(N)=O)C(CC)C(=O)CCC(=O)N(Cc1ccccc1)Cc1ccccc1` (stereo not given), the TGI in the experiment with HOP-62 NSCLC, in the experiment on HT29 colon, in the experiment with MALME-3M melanoma, in the experiment on NCI-H23 lung, in the experiment with SF-539 CNS and with SK-MEL-5 melanoma was above 100 µM throughout. For the same compound, the TGI in the experiment with SR leukemia, in the experiment with TK-10 renal and in the experiment with U251 CNS was above 100 µM throughout.
For `COC(=O)/C([Se]c1c(C)cc(C)cc1C)=C(\[Se]c1c(C)cc(C)cc1C)C(=O)OC`, the TGI in the experiment with HOP-62 NSCLC, with HT29 colon, with MALME-3M melanoma, in the experiment on NCI-H23 lung, with OVCAR-4 ovarian and in the experiment on SK-MEL-5 melanoma was above 100 µM in each case. Further, the TGI in the experiment on SR leukemia, with TK-10 renal and in the experiment on U251 CNS was above 100 µM in each case.
`O=C(CNc1ccc2c(c1)C(=O)c1ccccc1C2=O)Nc1ccc2c(c1)C(=O)c1ccccc1C2=O`: the GI50 in the experiment on HOP-62 NSCLC is 1.85 µM; in the experiment on HT29 colon, 0.451 µM; in the experiment on MALME-3M melanoma, 0.739 µM; with NCI-H23 lung, 0.304 µM; in the experiment on OVCAR-4 ovarian, 1.5 µM; in the experiment on SF-539 CNS, 1.78 µM. The GI50 in the experiment on SK-MEL-5 melanoma was 0.25 µM; with TK-10 renal it was 1.7 µM; in the experiment with U251 CNS, 0.449 µM. In addition, the TGI in the experiment on HOP-62 NSCLC came out at 3.59 µM; in the experiment on HT29 colon, 1.69 µM; in the experiment on MALME-3M melanoma it was 2.36 µM; in the experiment on NCI-H23 lung it was 1.09 µM; in the experiment on OVCAR-4 ovarian, 4.05 µM; in the experiment with SF-539 CNS it was 3.46 µM. The TGI with SK-MEL-5 melanoma worked out at 0.669 µM; in the experiment on TK-10 renal, 3.17 µM; in the experiment on U251 CNS it was 1.57 µM.
Take `Oc1ccccc1C=NCc1ccco1`: the TGI in the experiment on HOP-62 NSCLC, in the experiment with HT29 colon, in the experiment with MALME-3M melanoma, in the experiment on NCI-H23 lung, with OVCAR-4 ovarian and in the experiment on SF-539 CNS was above 100 µM in each case. For the same compound, the TGI in the experiment with SR leukemia, in the experiment with TK-10 renal and with U251 CNS was above 100 µM throughout.
Take `CC(C)c1ccc(C2C3=C(N=C4SCC(=O)N42)C(=O)c2ccccc23)cc1` (stereo not given): the TGI with HOP-62 NSCLC, in the experiment with HT29 colon, in the experiment on MALME-3M melanoma, with NCI-H23 lung, in the experiment on OVCAR-4 ovarian and in the experiment on SF-539 CNS was above 100 µM in each case. Moreover, the TGI in the experiment on SK-MEL-5 melanoma, in the experiment with TK-10 renal and in the experiment on U251 CNS was above 100 µM in each case.
With `C[S+](C)CCOC(=O)C(=[N+]=[N-])c1ccc([N+](=O)[O-])cc1`, the TGI with HOP-62 NSCLC, with HT29 colon, in the experiment on MALME-3M melanoma, in the experiment with NCI-H23 lung, with OVCAR-4 ovarian and in the experiment on SF-539 CNS was above 100 µM in each case. Besides, the TGI in the experiment on SK-MEL-5 melanoma, with TK-10 renal and in the experiment on U251 CNS was above 100 µM each time.
